Measurements: patent US8981150B2 (priority 2009, dated 2015)

Test: Solubility in water

Compound | Solubility in water (% w/w)
CCCC(OC)C(=O)N(C)C (stereo not shown) [Product 6] | <0.1
CCCCC(OCC)C(=O)N(C)C (stereo not shown) [Product 5] | <0.05
CCCC(OCC)C(=O)N(C)C (stereo not shown) [Product 7] | <0.1
CCCCC(OC)C(=O)N(C)C (stereo not shown) [Product 4] | <0.05
